Measurements taken from paper PMC11279551, “Pharmacokinetics and Enterohepatic Circulation of 2-(Quinoline-8-carboxamido)benzoic Acid (2-QBA) in Mice” (Pharmaceutics, 2024).

Experiments:
[1] = PO 6.25~50 mg/kg; cited from earlier work
[2] = Intestinal permeability in Ussing chamber; assay type: in vitro ADME, mice; settings: mouse, pH 7.4; range over intestinal segments, n = 3; read-out: permeability of marker compounds
Procedure: The small intestines were isolated from fasted mice under isoflurane anesthesia (1–3% with oxygen gas flow) and dissected into three parts, the jejunum, upper ileum, and lower ileum. […] The intestinal permeability of 2-QBA was assessed by adding 0.5 mL of HBSS containing 20 μM of 2-QBA on the donor side and 0.5 mL of fresh HBSS on the receiver side. Then, a 100 μL aliquot was withdrawn from the receiver side every 30 min for 2 h and an equal volume of pre-warmed fresh HBSS was added to replenish the lost volume. To analyze the 2-QBA, 100 μL aliquots were mixed with 4 volumes of IS solution (1 ng/mL berberine in acetonitrile). The mixture was vigorously vortexed for 5 min and then centrifuged at 13,000× g for 5 min. The supernatant was transferred to autosampler vials. Subsequently, a 3 μL aliquot was injected into the LC-MS/MS system.

Row | Papp [2] [×10⁻⁶ cm/s] | SMILES | time within which multiple peaks appeared [1] [h]
1 | – | O=c1c(-c2ccc(O)cc2)coc2cc(O)cc(O)c12 [genistein] | ≤ 6
2 | 10 to 22.5 | CC(C)NCC(O)COc1cccc2ccccc12 (centres unmarked) [propranolol, reference compound] | –
